Where a name gives a salt, the structure may show the parent alone.
What was measured:
Rat plasma DPP-IV = molecular target: T1, Rat plasma DPP-IV (Rattus norvegicus, UniProt P14740); assay: Plasma DPP-IV inhibitory activity, fluorescence assay (rat plasma); assay type: biochemical; details: rat plasma (10-fold diluted), Gly-Pro-MCA substrate, room temperature 60 min
T1 construct: from tissue; host or cells: rat plasma
Experimental: (§1) The plasma DPP-IV inhibitory activity of human and rat was measured by the fluorescence assay method.
(§2) The inhibitory rate relative to the solvent addition group was calculated and IC50 values were determined by logistic analysis.

Human plasma DPP-IV = molecular target: T2, Human plasma DPP-IV (Homo sapiens, UniProt P27487); assay: Plasma DPP-IV inhibitory activity, fluorescence assay (human plasma); assay type: biochemical; details: human plasma (10-fold diluted), Gly-Pro-MCA substrate, room temperature 60 min
T2 construct: from tissue; host or cells: human plasma
T2 sequence (P27487 39-766 limits assumed): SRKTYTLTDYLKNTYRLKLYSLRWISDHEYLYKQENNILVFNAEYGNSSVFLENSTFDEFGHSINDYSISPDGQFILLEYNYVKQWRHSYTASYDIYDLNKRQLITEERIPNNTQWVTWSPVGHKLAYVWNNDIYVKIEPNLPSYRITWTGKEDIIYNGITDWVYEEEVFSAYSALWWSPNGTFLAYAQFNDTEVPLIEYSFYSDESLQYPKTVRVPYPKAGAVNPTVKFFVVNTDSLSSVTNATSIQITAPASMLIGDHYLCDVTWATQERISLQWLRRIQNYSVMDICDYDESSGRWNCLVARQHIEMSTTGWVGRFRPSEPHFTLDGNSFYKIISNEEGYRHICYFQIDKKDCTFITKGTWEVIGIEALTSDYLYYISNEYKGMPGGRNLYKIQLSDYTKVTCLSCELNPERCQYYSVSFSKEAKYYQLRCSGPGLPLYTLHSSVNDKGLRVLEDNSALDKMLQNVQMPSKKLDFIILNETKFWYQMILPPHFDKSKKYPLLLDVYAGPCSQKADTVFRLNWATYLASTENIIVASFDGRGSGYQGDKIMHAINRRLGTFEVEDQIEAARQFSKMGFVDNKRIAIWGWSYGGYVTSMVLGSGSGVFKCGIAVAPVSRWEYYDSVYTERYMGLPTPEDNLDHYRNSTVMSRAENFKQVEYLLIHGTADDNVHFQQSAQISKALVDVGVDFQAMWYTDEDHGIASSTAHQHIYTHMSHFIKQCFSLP
Experimental: as §1, §2

T1 sequence (P14740 37-767 limits assumed): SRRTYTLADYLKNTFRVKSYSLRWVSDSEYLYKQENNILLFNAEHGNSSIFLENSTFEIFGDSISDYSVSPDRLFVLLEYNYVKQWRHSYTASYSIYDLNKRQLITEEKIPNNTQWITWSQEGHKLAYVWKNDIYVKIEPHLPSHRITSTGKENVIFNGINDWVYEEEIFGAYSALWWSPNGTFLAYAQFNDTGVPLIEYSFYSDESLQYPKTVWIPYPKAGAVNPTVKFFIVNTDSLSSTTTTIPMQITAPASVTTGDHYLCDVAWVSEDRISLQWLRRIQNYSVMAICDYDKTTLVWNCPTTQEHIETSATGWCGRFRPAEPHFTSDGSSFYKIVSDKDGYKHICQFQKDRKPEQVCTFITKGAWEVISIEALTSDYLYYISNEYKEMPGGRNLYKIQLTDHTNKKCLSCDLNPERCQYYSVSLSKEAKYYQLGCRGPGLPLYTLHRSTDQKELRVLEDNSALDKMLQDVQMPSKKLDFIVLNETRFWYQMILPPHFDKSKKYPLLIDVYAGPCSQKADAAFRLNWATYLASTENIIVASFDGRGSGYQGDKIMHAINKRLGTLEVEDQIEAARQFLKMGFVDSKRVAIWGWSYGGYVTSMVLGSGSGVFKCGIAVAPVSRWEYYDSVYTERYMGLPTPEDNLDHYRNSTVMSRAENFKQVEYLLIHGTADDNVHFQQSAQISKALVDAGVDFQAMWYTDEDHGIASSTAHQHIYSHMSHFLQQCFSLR

Structure (SMILES)	IC50 (Rat plasma DPP-IV) [pM]	IC50 (Human plasma DPP-IV) [pM]
N#C[C@@H]1CCCN1C(=O)[C@@H]1C[C@H](Nc2ccc(C(F)(F)F)cn2)CN1 [Example 20, (S)-2-cyano-1-[(2S,4S)-4-(5-trifluoromethyl-2-pyridyl)amino-2-pyrrolidinylcarbonyl]pyrrolidine 2 trifluoroacetate]	410	540
N#C[C@@H]1CCCN1C(=O)[C@@H]1C[C@H](Nc2ncccn2)CN1 [Example 24, (S)-2-cyano-1-[(2S,4S)-4-(2-pyrimidinyl)amino-2-pyrrolidinylcarbonyl]pyrrolidine hydrochloride]	640	510
N#C[C@@H]1CCCN1C(=O)[C@@H]1C[C@H](NCc2ccc([N+](=O)[O-])cc2)CN1 [Example 29, (S)-2-cyano-1-[(2S,4S)-4-(4-nitrophenylmethyl)amino-2-pyrrolidinylcarbonyl]pyrrolidine dihydrochloride]	220	300
CCOC(=O)CN(CC(=O)OCC)[C@@H]1CN[C@H](C(=O)N2CCC[C@H]2C#N)C1 [Example 39, (S)-2-cyano-1-{(2S,4S)-4-[N,N-bis(ethoxycarbonylmethyl)amino]-2-pyrrolidinylcarbonyl}pyrrolidine dihydrochloride]	550	1100
CN(Cc1cccc(C#N)c1)[C@@H]1CN[C@H](C(=O)N2CCSC2)C1 [Example 99, 3-{(2S,4S)-4-[N-(3-cyanophenylmethyl)-N-methylamino]-2-pyrrolidinylcarbonyl}-1,3-thiazolidine dihydrochloride]	9400	6800
O=C([C@@H]1C[C@H](N2CCC(c3cc4ccccc4s3)CC2)CN1)N1CCSC1 [Example 143, 3-{(2S,4S)-4-[4-(2-benzo[b]thienyl)piperidino]-2-pyrrolidinylcarbonyl}-1,3-thiazolidine dihydrochloride]	2100	1500
O=C([C@@H]1C[C@H](N2CCN(c3ccc([N+](=O)[O-])cn3)CC2)CN1)N1CCCC1 [Example 186, 1-{(2S,4S)-4-[4-(5-nitro-2-pyridyl)-1-piperazinyl]-2-pyrrolidinylcarbonyl}pyrrolidine trihydrochloride]	4200	3700
O=C(O)c1ccc(N2CCN([C@@H]3CN[C@H](C(=O)N4CCSC4)C3)CC2)nc1 [Example 212, 3-{(2S,4S)-4-[4-(5-carboxy-2-pyridyl)-1-piperazinyl]-2-pyrrolidinylcarbonyl}-1,3-thiazolidine trihydrochloride]	750	450
O=C([C@@H]1C[C@H](N2CCN(c3nc4ccc(C(F)(F)F)cc4s3)CC2)CN1)N1CCSC1 [Example 242, 3-{(2S,4S)-4-[4-(6-trofluoromethyl-2-benzothiazolyl)-1-piperazinyl]-2-pyrrolidinylcarbonyl}-1,3-thiazolidine dihydrochloride]	340	330
O=C([C@@H]1C[C@H](N2CCC(c3nn(CCN4CCOCC4)c(=O)o3)CC2)CN1)N1CCSC1 [Example 296, 3-((2S,4S)-4-{4-[4-(2-morpholinoethyl)-5-oxo-4,5-dihydro-1,3,4-oxadiazol-2-yl]piperidino}-2-pyrrolidinylcarbonyl)-1,3-thiazolidine trihydrochloride]	1900	1100
O=C([C@@H]1C[C@H](N2CCC(c3nc4ccc(F)cc4[nH]3)CC2)CN1)N1CCSC1 [Example 303, 3-{(2S,4S)-4-[4-(5-fluoro-2-benzimidazolyl)piperidino]-2-pyrrolidinylcarbonyl}-1,3-thiazolidine trihydrochloride]	1100	610
